This assay relates to WistarF/Han (WF) rats. The experiment in a line: 1h food intake with Y1R antagonist pre-treatment (Example 4). The following applies: i.c.v., isoleucyl thiazolidine 50nmol, Fig. 11. It is filed as in vivo. The method, then:
Animals. Male WistarF/Han (WF) rats (Central Animal Laboratory, Hannover Medical School, Hannover, Germany, see http://www.mh-hannover.de/institut/tierlabor/wf.htm for details), weighing 330±31 g±SD, were housed in a sound-proof, temperature controlled (24.0±0.5°C) room under specific pathogen free conditions with a 12/12h dark/light cycle (lights on at 07.00 with illumination level of 80 Lux). Food (Altromin lab chow pellets) and tap water were available ad libitum. Under ketamine/xylasine (100/5 mg/kg, i.p.) anesthesia, the rats were fixed in a Kopf stereotaxic frame and implanted with cannulae (Plastic One, Inc., Roanoke, VA, USA) above the lateral ventricle. All research and animal care procedures were approved by the Lower Saxony district government (Hannover, Germany) and followed principles described in the European Community's Council Directive of 24 November 1986 (86/609/EEC).
Surgery and i.c.v. application. For surgery, rats were anesthetized and prepared with i.c.v. cannulae (coordinates: A:-0.7mm caudal, L:1.4mm lateral to bregma; and V3.2mm ventral to the skull surface; tooth bar +3.0 above ear bars) using standard stereotaxic procedures as described in detail elsewhere (von Hörsten et al., 1998a,b,c). After a 7-day recovery period, successful ventricle cannulation was confirmed by an angiotensin drinking response (von Hörsten et al., 1998a). Rats showing a positive drinking response (n=56) were then habituated to experimental handling by daily sham injections for seven days.
Animals were randomly divided into eight experimental groups (n=6-8/group), which completed one SI test of anxiety: (1) aCSF+aCSF+aCSF; (2) BIBP+aCSF+aCSF; (3) aCSF+isoleucyl thiazolidine+aCSF; (4) BIBP+isoleucyl thiazolidine+aCSF; (5) aCSF+aCSF+NPY; (6) BIBP+aCSF+NPY; (7) aCSF+P32/89+NPY; (8) BIBP+isoleucyl thiazolidine+NPY. Animals in each group were treated in an identical way in each phase, receiving i.c.v. injections -60mins and -55min before behavioral testing. Experiments spanned two nights with groups counterbalances on both dark cycles. The injection cannula was attached to a Hamilton microsyringe with approximately 30cm of polyethylene tubing and all compounds were infused in a total volume of 5.0µl at a rate of 5.0 µl/min using a TSE multichannel infusion pump (Bad Homburg, Germany). The time spent in active social interaction (SI-time), 1h, and 12h food-intake were measured.
Peptides and Antagonist. Rat neuropeptide Y1-36 was obtained from Polypeptide Laboratories (Wolfenbüttel, Germany). The NPY Y1 receptor antagonist BIBP3226 was purchased from American Peptide Company, Sunnyvale, CA, USA (Cat#:60-1-22B). […]
Statistical analysis. Data obtained from the measures SI time and 1h food intake were analyzed by one-way (factor: "treatment") ANOVA. […]

For the compound `CCC(C)C(N)C(=O)N1CCSC1` (centres unmarked) [isoleucyl thiazolidine], the “1h feeding under Y1R blockade” value (BIBP3226 100nmol pre-treatment, NPY 0.8nmol) is listed as “blocked”. For the same compound, where the note is “without antagonist”, the 1h food-intake result is reported as “non-significant slight increase”.

For the origin of these results see patent EP1891948A1, “Treatment of neurological and neuropsychological disorders” (Probiodrug AG, priority 2000, dated 2002).
